Measurements reported in patent publication US20120190687A1, “Pyrazinylpyrazoles” (Bayer CropScience Ag, priority 2009, published 2012).

What was measured:
[1] = tested on: Boophilus microplus; test: Boophilus microplus test (BOOPMI injection); format: in vivo; conditions: 20 μg/animal, injection into abdomen, after 7 days, laying of fertile eggs
Method: Boophilus microplus Test (BOOPMI Injection) Solvent: Dimethyl Sulphoxide To prepare an appropriate active ingredient formulation, 10 mg of active ingredient are mixed with 0.5 ml of solvent and the concentrate is diluted with solvent to the desired concentration. The active ingredient solution is injected into the abdomen (Boophilus microplus), and the animals are transferred into dishes and stored in a climate-controlled room. The efficacy is assessed by laying of fertile eggs. After 7 days, the efficacy in % is determined. 100% means that none of the ticks has laid any fertile eggs.

[2] = tested on: Lucilia cuprina larvae; test: Lucilia cuprina test (LUCICU); format: in vivo; conditions: 100 ppm, treated horse meat, after 2 days
Method: (§1) Lucilia cuprina Test (LUCICU) Solvent: Dimethyl Sulphoxide To prepare an appropriate active ingredient formulation, 10 mg of active ingredient are mixed with 0.5 ml of dimethyl sulphoxide and the concentrate is diluted with water to the desired concentration. Vessels containing horse meat treated with the active ingredient preparation of the desired concentration are populated with about 20 Lucilia cuprina larvae. After 2 days, the kill in % is determined. 100% means that all of the larvae have been killed; 0% means that none of the larvae have been killed.

[3] = tested on: Phaedon cochleariae; test: Phaedon test (PHAECO spray treatment); format: in vivo; conditions: 500 g/ha, Chinese cabbage discs, after 7 days
Method: Phaedon Test ([…] Spray Treatment) Solvent: 78.0 parts by weight of acetone • • 1.5 parts by weight of dimethylformamide Emulsifier: 0.5 part by weight of alkylaryl polyglycol ether To prepare an appropriate active ingredient preparation, 1 part by weight of active ingredient is mixed with the stated amounts of solvent and emulsifier, and the concentrate is diluted with emulsifier-containing water to the desired concentration. Discs of Chinese cabbage (Brassica pekinensis) are sprayed with an active ingredient preparation of the desired concentration and, after drying, populated with larvae of the mustard beetle (Phaedon cochleariae). After 7 days, the efficacy in % is determined. 100% means that all beetle larvae have been killed; 0% means that none of the beetle larvae have been killed.

[4] = tested on: Tetranychus urticae; test: Tetranychus test, OP-resistant (TETRUR spray treatment); format: in vivo; conditions: bean leaf discs, after 6 days
Method: Tetranychus Test, OP-resistant (TETRUR Spray Treatment)
Solvent: 78.0 parts by weight of acetone • • 1.5 parts by weight of dimethylformamide
Emulsifier: 0.5 part by weight of alkylaryl polyglycol ether
To prepare an appropriate active ingredient preparation, 1 part by weight of active ingredient is mixed with the stated amounts of solvent and emulsifier, and the concentrate is diluted with emulsifier-containing water to the desired concentration. Discs of bean leaves (Phaseolus vulgaris) infested by all stages of the red spider mite (Tetranychus urticae) are sprayed with an active ingredient preparation of the desired concentration. After 6 days, the efficacy in % is determined. 100% means that all spider mites have been killed; 0% means that none of the spider mites have been killed.

[5] = logP by reversed-phase HPLC (EEC Directive 79/831 Annex V.A8); format: physicochemical
Excerpt: [table] The calibration is effected with unbranched alkan-2-ones (having 3 to 16 carbon atoms) with known log P values (log P values determined on the basis of the retention times by linear interpolation between two successive alkanones).

[6] = tested on: Ctenocephalides felis; test: Ctenocephalides felis test (CTECFE); format: in vivo; conditions: 100 ppm in citrated cow's blood, after 2 days
Method: Ctenocephalides felis Test ([…]) Solvent: 1 Part by Weight of Dimethyl Sulphoxide For the purpose of preparing an appropriate active ingredient formulation, 10 mg of active ingredient are mixed with 0.5 ml of dimethyl sulphoxide. A portion of the concentrate is diluted with citrated cow's blood and the desired concentration is established. About 20 unfed adult fleas (Ctenocephalides felis) are introduced into a chamber closed at the top and bottom with gauze. A metal cylinder, the bottom of which is closed with Parafilm, is placed onto the chamber. The cylinder contains the blood/active ingredient preparation, which can be imbibed by the fleas through the Parafilm membrane. After 2 days, the kill in % is determined. 100% means that all fleas have been killed; 0% means that none of the fleas have been killed.

[7] = tested on: Musca domestica; test: Musca domestica test; format: in vivo; conditions: 100 ppm, after 2 days
Method: as §1, with “Musca domestica” for “Lucilia cuprina”, “Test” for “Test (LUCICU)”, “a sponge” for “horse meat”, “adult Musca domestica.” for “about 20 Lucilia cuprina larvae.”, “flies” for “larvae”

[8] = tested on: Spodoptera frugiperda; test: Spodoptera frugiperda test (SPODFR spray treatment); format: in vivo; conditions: 500 g/ha, maize leaf discs, after 7 days
Method: Spodoptera frugiperda Test (SPODFR Spray Treatment) Solvent: 78.0 parts by weight of acetone • • 1.5 parts by weight of dimethylformamide Emulsifier: 0.5 part by weight of alkylaryl polyglycol ether To prepare an appropriate active ingredient preparation, 1 part by weight of active ingredient is mixed with the stated amounts of solvent and emulsifier, and the concentrate is diluted with emulsifier-containing water to the desired concentration. Discs of maize leaves (Zea mays) are sprayed with an active ingredient preparation of the desired concentration and, after drying, populated with caterpillars of the armyworm (Spodoptera frugiperda). After 7 days, the efficacy in % is determined. 100% means that all caterpillars have been killed; 0% means that none of the caterpillars have been killed.

[9] = tested on: Myzus persicae; test: Myzus test (MYZUPE spray treatment); format: in vivo; conditions: 500 g/ha, Chinese cabbage discs, after 6 days
Method: Myzus test (MYZUPE Spray Treatment) Solvent: 78 parts by weight of acetone • • 1.5 parts by weight of dimethylformamide Emulsifier: 0.5 part by weight of alkylaryl polyglycol ether To prepare an appropriate active ingredient preparation, 1 part by weight of active ingredient is mixed with the stated amounts of solvent and emulsifier, and the concentrate is diluted with emulsifier-containing water to the desired concentration. Discs of Chinese cabbage (Brassica pekinensis) infested by all stages of the green peach aphid (Myzus persicae) are sprayed with an active ingredient preparation of the desired concentration. After 6 days, the efficacy in % is determined. 100% means that all of the aphids have been destroyed; 0% means that none of the aphids have been destroyed.

[10] = * LC-MS, acidic range, pH 2.7, 0.1% aqueous formic acid / acetonitrile

log P [5, 10]	log P ([5]; ** acidic range, pH 2.3, 0.1% aqueous phosphoric acid / acetonitrile)	Structure (SMILES)	efficacy [1] [%]	efficacy (kill) [2] [%]	efficacy [3] [%]	efficacy ([4]; 500 g/ha) [%]	efficacy (kill) [6] [%]	efficacy (kill) [7] [%]	efficacy [8] [%]	efficacy [9] [%]	efficacy ([4]; 100 g/ha) [%]
3.56*	–	COc1cc(-c2c(C(F)(F)F)nn(-c3nccnc3OC)c2N)cc(C(F)(F)F)c1OC [Ex. 89]	100	100	100	–	100	80	100	–	–
4.91*	–	COc1nccnc1-n1nc(C(F)(F)C(F)(F)C(F)(F)F)c(-c2cc(Cl)cc(C(F)(F)F)c2)c1N [Ex. 46]	100	100	100	80	80	–	100	80	–
4.46*	–	COc1nccnc1-n1nc(C(F)(F)F)c(-c2cc(Cl)c(N(C)C)c(Cl)c2)c1N [Ex. 121]	–	–	100	–	–	–	100	–	80
3.27*	–	COc1nccnc1-n1nc(C(F)(F)F)c(-c2cc3c(c(C(F)(F)F)c2)OCCO3)c1N [Ex. 173]	–	–	100	90	–	–	100	–	–
4.05*	–	COc1nccnc1-n1nc(C(F)(F)C(F)F)c(-c2cc(Cl)cc(C(F)(F)F)c2)c1N [Ex. 59]	–	–	100	100	–	–	83	100	–
4.07*	–	COc1nccnc1-n1nc(C(F)(F)F)c(-c2cc(Cl)cc(C(F)(F)F)c2)c1N [Ex. 10]	100	100	–	–	90	100	–	–	–
4.23*	–	COc1nccnc1-n1nc(C(F)(F)C(F)(F)F)c(-c2cc(F)cc(C(F)(F)F)c2)c1N [Ex. 21]	100	100	100	100	–	100	100	100	–
3.25*	–	COc1nccnc1-n1nc(C(F)(F)F)c(-c2cc(Cl)c3c(c2)OCCCO3)c1N [Ex. 136]	100	100	100	–	100	–	–	–	–
3.95*	–	COc1nccnc1-n1nc(C(F)(F)F)c(-c2cc(Cl)cc(Cl)c2)c1N [Ex. 6]	100	100	100	–	90	80	83	–	–
3.63*	–	C=Cc1nn(-c2nccnc2OC)c(N)c1-c1cc(Cl)cc(C(F)(F)F)c1 [Ex. 9]	100	100	100	100	–	–	100	100	–
4.08*	–	C=CCN(CC=C)c1c(-c2cc(Cl)cc(C(F)(F)F)c2)c(C(F)(F)F)nn1-c1nccnc1OC [Ex. 103]	–	–	–	–	–	–	–	80	–
5.13*	–	COc1ccc(CNc2c(-c3cc(Cl)cc(C(F)(F)F)c3)c(C(F)(F)F)nn2-c2nccnc2OC)cc1 [Ex. 41]	–	100	100	–	80	–	–	90	–

Continued, molecule first:

Structure (SMILES)	log P [5, 10]	log P ([5]; ** acidic range, pH 2.3, 0.1% aqueous phosphoric acid / acetonitrile)	efficacy [1] [%]	efficacy (kill) [2] [%]	efficacy [3] [%]	efficacy ([4]; 500 g/ha) [%]	efficacy (kill) [6] [%]	efficacy (kill) [7] [%]	efficacy [8] [%]	efficacy [9] [%]	efficacy ([4]; 100 g/ha) [%]
CCC(OC)c1nn(-c2nccnc2OC)c(N)c1-c1ccc(Cl)c(Cl)c1 (centres unmarked) [Ex. 3]	–	–	100	100	100	100	–	–	–	–	–
COc1nccnc1-n1nc(C(F)(F)C(F)F)c(-c2cc(Cl)c(Cl)c(Cl)c2)c1N [Ex. 116]	–	4.37**	–	–	100	90	–	–	100	–	–
COc1nccnc1-n1nc(C(F)(F)F)c(-c2cc(Cl)cc(C(F)(F)F)c2)c1NCc1ccccc1 [Ex. 33]	5.28*	–	–	–	100	90	–	–	–	80	–
CCOc1nccnc1-n1nc(C(F)(F)F)c(-c2cc(Cl)cc(C(F)(F)F)c2)c1N [Ex. 12]	4.47*	–	100	100	100	90	90	100	–	–	–
COc1nccnc1-n1nc(C(F)(F)C(F)F)c(-c2cc(Cl)c3c(c2)OCO3)c1N [Ex. 65]	3.18*	–	–	–	100	90	–	–	100	–	–
COc1nccnc1-n1nc(C(F)(F)F)c(-c2cc(Cl)c3c(c2)COCO3)c1N [Ex. 135]	3.02*	–	100	100	100	–	100	–	80	–	–
CSc1nccnc1-n1nc(C(F)(F)F)c(-c2cc(Cl)cc(C(F)(F)F)c2)c1N [Ex. 28]	4.9*	–	100	100	100	–	–	–	100	–	–
COc1nccnc1-n1nc(C(C)(C)F)c(-c2cc(Cl)cc(Cl)c2)c1N [Ex. 168]	3.77*	–	–	–	100	100	–	–	100	100	–
COc1nccnc1-n1nc(C(F)(F)F)c(-c2cc(Br)c3c(c2)OCCCO3)c1N [Ex. 131]	3.32*	–	100	100	100	100	100	100	100	–	–
C=C(C)c1nn(-c2nccnc2OC)c(N)c1-c1cc(Cl)cc(Cl)c1 [Ex. 167]	3.79*	–	–	–	100	100	–	–	–	100	–
COc1nccnc1-n1nc(C(F)(F)F)c(-c2cc(Cl)c(N(C)C)c(C(F)(F)F)c2)c1N [Ex. 123]	4.72*	–	–	–	100	80	–	–	100	–	–
